Earlier results, collected in US7105698B2, “Process for the separation of R(-)-and S(+)-5-[2-[[2-(2-ethoxyphenoxy)ethyl]amino]propyl]-2- methoxybenzenesulfonamide” (Ragactives, S.L., priority 2002, dated 2006).

Conditions: ratio R(−)-I versus S(+)-I; prior studies

SMILES: CCOc1ccccc1OCCN[C@H](C)Cc1ccc(OC)c(S(N)(=O)=O)c1 [R(−)-I, R(−)-5-[2-[[2-(2-ethoxyphenoxy)ethyl]amino]propyl]-2-methoxybenzenesulfonamide]
- pharmacological action of R(−)-I relative to its S(+)-I enantiomer: up to 320 times
